{
  "source": "patent US20090022684A1",
  "about": "“Methods for hematopoietic stimulation” (priority 2006, published 2009)",
  "key": {"[1]": {"tested_on": "male mice of the C57BL/6 strain", "experiment": "In vivo mouse study: white blood cell, neutrophil and lymphocyte populations after 14 days of subcutaneous dosing", "conditions": "for increase in neutrophil population compared to mice in the control group / increase in the white blood cell population compared to mice in the control group: Day 14, vs control group without any treatment; for Lymphocytes / Neutrophils / White Blood Cells: Day 14 blood, s.c. over 14 days, peptide 80 μg/kg once daily, G-CSF 10 μg/kg once daily, EPO 600 IU/kg Days 1, 4, 7, 10, 14, group mean", "from_the_text": "In vivo Test System. Mouse was selected as the in vivo test system. Sufficient male mice of the C57BL/6 strain was obtained. The animals was obtained as weanlings of about 24-27 days of age on arrival. At randomization, their body weights were within ±20% of the overall mean for each sex. The health care and welfare of the mice were maintained in accordance with the requirement of the Animals (Scientific Procedures) Act 1986 UK. All animals were given clinical inspection for ill health on arrival. They were acclimatized for about three weeks and a veterinary inspection was performed before the start of dosing to ensure their suitability for study. The mice were assigned to treatment groups during the acclimatization period using a total randomization procedure. Group mean body weights were calculated and inspected to ensure there were no unacceptable difference between groups.\nPreparation of Administered Formulation of [Leu^27]cyclo(Glu^22-Lys^26)-hPTH-(1-31)-NH2. The bulk freeze-dried peptide [Leu^27]cyclo(Glu^22-Lys^26)-hPTH-(1-31)-NH2 (SEQ ID NO: 4) was dissolved in 0.01 M acetic acid. The concentration of peptide in the solution was 1 μg/μL. The solution was re-aliquotted into dosing vials and kept frozen at approximately −70° C. The vials were then freeze-dried at the temperature lower than −20° C. and stored frozen until required. The freeze-dried aliquots for injection was reconstituted daily. The peptide was dissolved in an appropriate volume of purified water to an approximate concentration of 2-3 mg/mL. The phosphate-buffered saline (pH=7.4) was added to give the final required concentration and the pH value of the final solution is approximately 7.2. The capped vials were mixed thoroughly to ensure peptide was fully dissolved prior to use. Aseptic techniques and glass vials were used throughout dose preparation.\nPreparation of Administered Formulation of G-CSF. G-CSF was provided at a concentration of 300 μg/mL in sorbito, sodium acetate and polysorbate 80 in water for injection. The stock solution was diluted accordingly with water for injection to provide the correct dosing concentration.\nPreparation of Administered Formulation of EPO. EPO was provided at a concentration of 40,000 IU/mL in polysorbate 80, sodium chloride, sodium dihydrogen phosphate dihydrate, disodium phosphate dihydrate, glycine and water for injection. The stock solution was diluted accordingly with phosphate buffered solution to provide the correct dosing concentration.\nIn vivo Mouse Study. The peptide [Leu^27]cyclo(Glu^22-Lys^26)-hPTH-(1-31 )-NH2 (SEQ ID NO: 4), G-CSF or EPO were administered subcutaneously over 14 days. The mice were dosed as follows:\nThe peptide [Leu^27]cyclo(Glu^22-Lys^2 1)-hPTH-(1-3 I)-NH2 was administered to all mice in Groups 2, 3, 4 and 5 once daily for fourteen days at a dose level of 80 μg/kg.\nMice in Group 3, 4 and 5 also received EPO and/or G-CSF. EPO was administered on Days 1, 4, 7, 10 and 14 at a dose of 600 IU/kg. G-CSF was administered once daily for fourteen days at a dose level of 10 μg/kg.\nMice in 6, 7, 8 received EPO and/or G-CSF. EPO was administered on Days 1, 4, 7, 10 and 14 at a dose level of 600 IU/kg. G-CSF was administered once daily for fourteen days at a dose level of 10 μg/kg.\nOn Day 14, blood samples (0.5 mL EDTA nominal, 0.6 mL lithium heparin nominal) were withdrawn from all mice and were collected into lithium heparin tubes. The tubes were centrifuged and the plasma were separated and analyzed."}, "healthy older volunteers": {"tested_on": "healthy older volunteers", "experiment": "Phase I clinical trial: changes in blood cell populations from baseline to Day 7", "format": "in vivo, human", "conditions": "for effect on white blood cell population, especially neutrophil population: healthy adults, compared to placebo", "method": "A Phase I, single-center, randomized double blind, placebo-controlled, multiple-escalating-dose study in healthy older volunteers was carried out for the peptide [Leu^27]cyclo(Glu^22-Lys^2 1)-hPTH-(1-31)-NH2 (SEQ ID NO: 4). Subjects were healthy males and females (non-reproductive potential), aged 40 to 65 years. […] Subcutaneous injections of placebo or the peptide with a dosage of 10 μg, 20 μg, 40 μg, 60 μg, or 80 μg was administered daily for 7 days. For each dosage level, 2 subjects (I male and I female) received placebo and 6 subjects (3 males and 3 females) received the peptide daily.\nThe number of white blood cells and the number neutrophils in a subject treated with the peptide increase as the dosage increases until it reaches the maximum at the dosage level of 60 μg. Increase in the number of white blood cells in subject treated with 60 μg of [Leu^27]cyclo(Glu^22-Lys^26)-hPTH-(1-31)-NH2 at Day 7 from the baseline level was about 8 times of that in subjects treated with placebo."}},
  "note": "Positions of bridges follow the written chain, without caps; N, C: chain ends. Residues, ends and D or L forms follow the SMILES beside them.",
  "data": [
    {"molecule": "CC[C@H](C)[C@H](NC(=O)[C@H](CCC(=O)O)NC(=O)[C@H](CO)NC(=O)[C@@H](NC(=O)[C@@H](N)CO)C(C)C)C(=O)N[C@@H](CCC(N)=O)C(=O)N[C@@H](CC(C)C)C(=O)N[C@@H](CCSC)C(=O)N[C@@H](Cc1c[nH]cn1)C(=O)N[C@@H](CC(N)=O)C(=O)N[C@@H](CC(C)C)C(=O)NCC(=O)N[C@@H](CCCCN)C(=O)N[C@@H](Cc1c[nH]cn1)C(=O)N[C@@H](CC(C)C)C(=O)N[C@@H](CC(N)=O)C(=O)N[C@@H](CO)C(=O)N[C@@H](CCSC)C(=O)N[C@@H](CCC(=O)O)C(=O)N[C@@H](CCCNC(=N)N)C(=O)N[C@H](C(=O)N[C@H]1CCC(=O)NCCCC[C@@H](C(=O)N[C@@H](CC(C)C)C(=O)N[C@@H](CC(C)C)C(=O)N[C@@H](CCC(N)=O)C(=O)N[C@@H](CC(=O)O)C(=O)N[C@H](C(N)=O)C(C)C)NC(=O)[C@H](CCCNC(=N)N)NC(=O)[C@H](CC(C)C)NC(=O)[C@H](Cc2c[nH]c3ccccc23)NC1=O)C(C)C", "note": "[[Leu^27]cyclo(Glu^22-Lys^26)-hPTH-(1-31)-NH2] (H-SVSEIQLMHNLGKHLNSMERVEWLRKLLQDV-NH2; lactam 22-26; N-terminus assumed)", "values": [
      {"measurement": "increase in lymphocyte population", "setting": "[1]; Day 14, vs control group", "result": "~20", "unit": "%"},
      {"measurement": "increase in neutrophil population compared to mice in the control group", "setting": "[1]", "result": "~75", "unit": "%"},
      {"measurement": "increase in the white blood cell population compared to mice in the control group", "setting": "[1]", "result": "~26", "unit": "%"},
      {"measurement": "Lymphocytes", "setting": "[1]", "result": "3.7 ± 1.92 1000/cmm"},
      {"measurement": "Neutrophils", "setting": "[1]", "result": "0.7 ± 0.35 1000/cmm"},
      {"measurement": "White Blood Cells", "setting": "[1]", "result": "4.8 ± 2.13 1000/cmm"},
      {"measurement": "Neutrophil, change in mean from baseline to Day 7", "setting": "healthy older volunteers; 10 μg s.c. daily for 7 days", "result": 1.22, "unit": "x e^9/L"},
      {"measurement": "Platelet, change in mean from baseline to Day 7", "setting": "healthy older volunteers; 10 μg s.c. daily for 7 days", "result": 19.80, "unit": "x e^9/L"},
      {"measurement": "Relative Neutrophil Count, change in mean from baseline to Day 7", "setting": "healthy older volunteers; 10 μg s.c. daily for 7 days", "result": 4, "unit": "%"},
      {"measurement": "White Blood Cells, change in mean from baseline to Day 7", "setting": "healthy older volunteers; 10 μg s.c. daily for 7 days", "result": 1.50, "unit": "x e^9/L"},
      {"measurement": "Neutrophil, change in mean from baseline to Day 7", "setting": "healthy older volunteers; 20 μg s.c. daily for 7 days", "result": 1.22, "unit": "x e^9/L"},
      {"measurement": "Platelet, change in mean from baseline to Day 7", "setting": "healthy older volunteers; 20 μg s.c. daily for 7 days", "result": 16.83, "unit": "x e^9/L"},
      {"measurement": "Relative Neutrophil Count, change in mean from baseline to Day 7", "setting": "healthy older volunteers; 20 μg s.c. daily for 7 days", "result": 3, "unit": "%"},
      {"measurement": "White Blood Cells, change in mean from baseline to Day 7", "setting": "healthy older volunteers; 20 μg s.c. daily for 7 days", "result": 1.75, "unit": "x e^9/L"},
      {"measurement": "Neutrophil, change in mean from baseline to Day 7", "setting": "healthy older volunteers; 40 μg s.c. daily for 7 days", "result": 2.88, "unit": "x e^9/L"},
      {"measurement": "Platelet, change in mean from baseline to Day 7", "setting": "healthy older volunteers; 40 μg s.c. daily for 7 days", "result": 28.50, "unit": "x e^9/L"},
      {"measurement": "Relative Neutrophil Count, change in mean from baseline to Day 7", "setting": "healthy older volunteers; 40 μg s.c. daily for 7 days", "result": 12, "unit": "%"},
      {"measurement": "White Blood Cells, change in mean from baseline to Day 7", "setting": "healthy older volunteers; 40 μg s.c. daily for 7 days", "result": 3.23, "unit": "x e^9/L"},
      {"measurement": "Increase in the number of white blood cells at Day 7 from baseline relative to that in subjects treated with placebo", "setting": "healthy older volunteers; 60 μg s.c. daily for 7 days", "result": "about 8 times"},
      {"measurement": "Neutrophil, change in mean from baseline to Day 7", "setting": "healthy older volunteers; 60 μg s.c. daily for 7 days", "result": 4.53, "unit": "x e^9/L"},
      {"measurement": "Platelet, change in mean from baseline to Day 7", "setting": "healthy older volunteers; 60 μg s.c. daily for 7 days", "result": 47.83, "unit": "x e^9/L"},
      {"measurement": "Relative Neutrophil Count, change in mean from baseline to Day 7", "setting": "healthy older volunteers; 60 μg s.c. daily for 7 days", "result": 16, "unit": "%"},
      {"measurement": "White Blood Cells, change in mean from baseline to Day 7", "setting": "healthy older volunteers; 60 μg s.c. daily for 7 days", "result": 4.65, "unit": "x e^9/L"},
      {"measurement": "Neutrophil, change in mean from baseline to Day 7", "setting": "healthy older volunteers; 80 μg s.c. daily for 7 days", "result": 4.40, "unit": "x e^9/L"},
      {"measurement": "Platelet, change in mean from baseline to Day 7", "setting": "healthy older volunteers; 80 μg s.c. daily for 7 days", "result": 39.50, "unit": "x e^9/L"},
      {"measurement": "Relative Neutrophil Count, change in mean from baseline to Day 7", "setting": "healthy older volunteers; 80 μg s.c. daily for 7 days", "result": 17, "unit": "%"},
      {"measurement": "White Blood Cells, change in mean from baseline to Day 7", "setting": "healthy older volunteers; 80 μg s.c. daily for 7 days", "result": 4.40, "unit": "x e^9/L"},
      {"measurement": "increase in population of neutrophils at Day 7 relative to that for subjects treated with placebo", "setting": "healthy older volunteers; Day 7, s.c. daily for 7 days", "result": "about 50 fold"},
      {"measurement": "platelet count", "setting": "healthy older volunteers; dosage level of 60 μg and 80 μg, s.c. daily for 7 days", "result": "Significant increase"},
      {"measurement": "effect on white blood cell population, especially neutrophil population", "setting": "healthy older volunteers; s.c. daily for 7 days", "result": "significant stimulating effect"},
      {"measurement": "effect on white blood cell population, especially neutrophil population", "setting": "healthy older volunteers; s.c. daily for 7 days, listed as cyclic peptide of SEQ ID NO: 4", "result": "significant increase"}
    ]},
    {"molecule": "EPO: erythropoietin, an erythropoiesis regulator", "values": [
      {"measurement": "Lymphocytes", "setting": "[1]", "result": "3.5 ± 1.12 1000/cmm"},
      {"measurement": "Neutrophils", "setting": "[1]", "result": "0.5 ± 0.49 1000/cmm"},
      {"measurement": "White Blood Cells", "setting": "[1]", "result": "4.3 ± 1.56 1000/cmm"}
    ]},
    {"molecule": "G-CSF: granulocyte colony-stimulating factor, a hematopoietic growth factor (protein, UniProt P09919 31-207, looked up) Granulocyte …: TPLGPASSLPQSFLLKCLEQVRKIQGDGAALQEKLVSECATYKLCHPEELVLLGHSLGIPWAPLSSCPSQALQLAGCLSQLHSGLFLYQGLLQALEGISPELGPTLDTLQLDVADFATTIWQQMEELGMAPALQPTQGAMPAFASAFQRRAGGVLVASHLQSFLEVSYRVLRHLAQP", "values": [
      {"measurement": "increase in neutrophil population compared to mice in the control group", "setting": "[1]", "result": "~175", "unit": "%"},
      {"measurement": "increase in the white blood cell population compared to mice in the control group", "setting": "[1]", "result": "~20", "unit": "%"},
      {"measurement": "Lymphocytes", "setting": "[1]", "result": "3.0 ± 1.30 1000/cmm"},
      {"measurement": "Neutrophils", "setting": "[1]", "result": "1.1 ± 0.25 1000/cmm"},
      {"measurement": "White Blood Cells", "setting": "[1]", "result": "4.5 ± 1.36 1000/cmm"}
    ]}
  ]
}
